This passage reports IC50 or EC50 (antagonist or agonist mode, not stated per compound) results from US11981677B2, “Further substituted triazolo quinoxaline derivatives” (Grünenthal GmbH, priority 2018, dated 2024).

The experiment deals with T1, Glucocorticoid Receptor (Homo sapiens, UniProt P04150).
T1 construct: expressed in transfected cells
T1 sequence (P04150 524-758 limits assumed): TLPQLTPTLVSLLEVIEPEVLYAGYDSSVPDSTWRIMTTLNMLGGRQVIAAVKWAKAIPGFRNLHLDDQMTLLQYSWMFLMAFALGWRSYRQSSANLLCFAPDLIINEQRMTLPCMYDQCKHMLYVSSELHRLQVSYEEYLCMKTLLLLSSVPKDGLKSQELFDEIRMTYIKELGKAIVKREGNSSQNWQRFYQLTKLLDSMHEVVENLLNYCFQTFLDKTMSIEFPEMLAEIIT
Put plainly: Agonistic mode of action on the glucocorticoid receptor (CHO-Gal4/GR luciferase reporter cell line). The class given is cell-based. Particulars: CHO-Gal4/GR luciferase reporter cells; observed in the agonistic assay or the antagonistic assay (mode not given); read-out: IC50 or EC50 range. The text has this: Potential selective glucocorticoid receptor modulators of this intervention can be tested for modulation of the activity of the glucocorticoid receptor using cell-based assays. These assays involve a Chinese hamster ovary (CHO) cell line which contains fragments of the glucocorticoid receptor as well as fusion proteins. The glucocorticoid receptor fragments used are capable of binding the ligand (e.g. beclomethasone) to identify molecules that compete for binding with glucocorticoid receptor ligands. In more detail, the glucocorticoid receptor ligand binding domain is fused to the DNA binding domain (DBD) of the transcriptionfactor GAL4 (GAL4 DBD-GR) and is stably integrated into a CHO cell line containing a GAL4-UAS-Luciferase reporter construct. […] After cell lysis the luminescence that is produced by luciferase after addition of the substrate is detected and EC50 or IC50 values can be calculated. Engagement of molecules which induce gene expression via glucocortocoid receptor binding to the DNA leads to expression of the luciferase gene under the control of the fusion protein GAL4 DBD-GR and therefore to a dose-dependent increase of the luminescence signal. Binding of molecules which repress beclomethasone-induced gene expression of the luciferase gene under the control of the fusion protein GAL4 DBD-GR leads to a dose-dependent reduction of the luminescence signal.
The reporter cell line CHO-Gal4/GR consisted of a chinese hamster ovary (CHO) cell line (Leibniz Institute DSMZ—German Collection of Microorganisms and Cell Cultures GmbH: ACC-110) containing a firefly luciferase gene under the control of the GR ligand binding domain fused to the DNA binding domain (DBD) of GAL4 (GAL4 DBD-GR) stably integrated into CHO cells. This cell line was established by stable transfection of CHO cells with a GAL4-UAS-Luciferase reporter construct. In a subsequent step the ligand binding domain of the GR cloned into pIRES2-EGFP-GAL4 containing the DNA binding domain of GAL4 from pFA-AT2 was transfected. This fusion construct activated firefly luciferase expression under the control of a multimerized GAL4 upstream activation sequence (UAS). The signal of the emitted luminescence was recorded by the FLIPR^TETRA. This allowed for specific detection of ligand-induced activation of the GR and therefore for the identification of compounds with agonistic properties. The GAL4/UAS reporter was premixed with a vector that constitutively expressed Renilla luciferase, which served as an internal positive control for transfection efficiency.
The complete culture medium for the assay was: • DMEM F-12 (1:1) MIXTURE (LONZA cat. No: BE04-687F/U1) 500 mL • 5 mL of 100 mM Sodium Pyruvate (LONZA cat. No: BE12-115E) • 25 mL of 7.5% Sodium Bicarbonate (LONZA cat. No BE17-613E) • 6.5 mL of 1 M Hepes (LONZA cat. No: BE17-737E) • 5 mL of 100× Penicillin/Streptomycin (LONZA cat. No DE17-602E) • 50 mL of Fetal Bovine Serum (Euroclone cat. No ECS 0180L) • 0.25 mL of 10 mg/mL Puromycin (InvivoGen cat.: ant-pr-1) • 0.5 mL of 100 mg/mL Zeocin (InvivoGen cat.: ant-zn-1)
Cryo-preserved CHO-Gal4/GR cells were suspended in complete medium and 5000 cells/25 μl/well were seeded into the wells of 384-well polystyrene assay plates (Thermo Scientific, cat. #4332) and cultured at 37° C., 5% CO2 and 95% humidity. After 24 hours growth medium was carefully removed and replaced by 30111 Opti-MEM (GIBCO, cat. #31985062) as assay buffer. To test the compounds an 8-point half-log compound dilution curve was generated in 100% DMSO starting from a 2 mM stock and compounds were then diluted 1:50 in Opti-MEM. 10111 of compounds were then added to the wells containing 30 μl Opti-MEM resulting in a final assay concentration range from 10 μM to 0.003 μM in 0.5% DMSO. Compounds were tested at 8 concentrations in quadruplicate data points. […] Finally, cells were lysed with 20 μl of Triton/Luciferin solution and the signal of the emitted luminescence was recorded at the FLIPR^TETRA for 2 minutes. […]

Consider `COc1c(-c2cccc3c2ccn3S(=O)(=O)C2CC2)cc(F)c2c1-n1c(C)nnc1C(C)(C)N2` [Example 505, 8-[1-(Cyclopropylsulfonyl)-1H-indol-4-yl]-6-fluoro-9-methoxy-1,4,4-trimethyl-5H-[1,2,4]triazolo[4,3-a]quinoxaline], for which the IC50 or EC50 (antagonist or agonist mode, not stated per compound) fell in the range of 0.1 to 1 µM.

Turning to `CCS(=O)(=O)n1ccc2c(-c3cc(F)c4c(c3C(F)F)-n3c(C)nnc3C(C)(C)N4)cc(F)cc21` [Example 460, 9-(Difluoro-methyl)-8-[1-(ethylsulfonyl)-6-fluoro-1H-indol-4-yl]-6-fluoro-1,4,4-trimethyl-5H-[1,2,4]triazolo[4,3-a]quinoxaline], the IC50 or EC50 (antagonist or agonist mode, not stated per compound) is < 0.1 µM.

With `Cc1nnc2n1-c1c(c(F)cc(-c3cc(F)cc4c3ccn4S(C)(=O)=O)c1C(F)F)NC2(C)C` [Example 455, 9-(difluoromethyl)-6-fluoro-8-(6-fluoro-1-(methylsulfonyl)-1H-indol-4-yl)-1,4,4-trimethyl-4,5-dihydro-[1,2,4]triazolo[4,3-a]quinoxaline], the IC50 or EC50 (antagonist or agonist mode, not stated per compound) was < 0.1 µM.

`Cc1cc(-c2cc(F)c3c(c2C)-n2c(C)nnc2C(C)(C)N3)c2ccn(S(C)(=O)=O)c2c1` [Example 475, 6-Fluoro-1,4,4,9-tetramethyl-8-(6-methyl-1-methylsulfonyl-1H-indol-4-yl)-5H-[1,2,4]triazolo[4,3-a]quinoxaline]: the IC50 or EC50 (antagonist or agonist mode, not stated per compound) lay within 0.1 to 1 µM.

Consider `COc1c(-c2cccc3c2ccn3S(C)(=O)=O)cc(F)c2c1-n1c(C)nnc1C(C)(C)N2` [Example 57, 6-Fluoro-9-methoxy-1,4,4-trimethyl-8-(1-methylsulfonyl-1H-indol-4-yl)-5H-[1,2,4]triazolo[4,3-a]quinoxaline], for which the IC50 or EC50 (antagonist or agonist mode, not stated per compound) is 0.1 to 1 µM.

For `Cc1c(-c2cc(F)cc3c2ccn3S(=O)(=O)CC2CC2)cc(F)c2c1-n1c(C)nnc1C(C)(C)N2` [Example 497, 8-[1-(Cyclopropyl-methylsulfonyl)-6-fluoro-1H-indol-4-yl]-6-fluoro-1,4,4,9-tetramethyl-5H-[1,2,4]triazolo[4,3-a]quinoxaline], the IC50 or EC50 (antagonist or agonist mode, not stated per compound) was < 0.1 µM.

Consider `Cc1c(-c2cccc3c2ccn3S(C)(=O)=O)c(F)c(F)c2c1-n1c(C)nnc1C(C)(C)N2` [Example 448, 6,7-difluoro-1,4,4,9-tetramethyl-8-(1-(methylsulfonyl)-1H-indol-4-yl)-4,5-dihydro-[1,2,4]triazolo[4,3-a]quinoxaline], for which the IC50 or EC50 (antagonist or agonist mode, not stated per compound) is < 0.1 µM.

As for `Cc1nnc2n1-c1c(C#N)c(-c3cccc4c3ccn4C3CC3)cc(F)c1NC2(C)C` [Example 450, 8-(1-cyclopropyl-1H-indol-4-yl)-6-fluoro-1,4,4-trimethyl-4,5-dihydro-[1,2,4]triazolo[4,3-a]quinoxaline-9-carbonitrile], the IC50 or EC50 (antagonist or agonist mode, not stated per compound) was < 0.1 µM.

With `COc1c(-c2cc(F)cc3c2cnn3S(C)(=O)=O)cc(Cl)c2c1-n1c(C)nnc1C(C)(C)N2` [Example 493, 6-Chloro-8-(6-fluoro-1-methylsulfonyl-1H-indazol-4-yl)-9-methoxy-1,4,4-trimethyl-5H-[1,2,4]triazolo[4,3-a]quinoxaline], the IC50 or EC50 (antagonist or agonist mode, not stated per compound) is 0.1 to 1 µM.

For the compound `COc1c(-c2cccc3c2ccn3S(C)(=O)=O)c(F)c(F)c2c1-n1c(C)nnc1C(C)(C)N2` [Example 499, 6,7-Difluoro-9-methoxy-1,4,4-trimethyl-8-(1-methylsulfonyl-1H-indol-4-yl)-5H-[1,2,4]triazolo[4,3-a]quinoxaline], the IC50 or EC50 (antagonist or agonist mode, not stated per compound) lay in the range of 0.1 to 1 µM.

In the case of `COc1cc(-c2c(C)c3c(c(F)c2F)NC(C)(C)c2nnc(C)n2-3)c2ccn(S(C)(=O)=O)c2c1` [Example 522, 6,7-Difluoro-8-(6-methoxy-1-methylsulfonyl-1H-indol-4-yl)-1,4,4,9-tetramethyl-5H-[1,2,4]triazolo[4,3-a]quinoxaline], the IC50 or EC50 (antagonist or agonist mode, not stated per compound) is 0.1 to 1 µM.
